# Legend:
# [1] = target: T1, Cholecystokinin receptor type A (Rattus norvegicus, UniProt P30551); experiment: Inhibition of [3H]propionyl-CCK-8 binding to rat pancreas cholecystokinin-A (CCK-A) receptor
# T1 sequence (P30551 whole entry): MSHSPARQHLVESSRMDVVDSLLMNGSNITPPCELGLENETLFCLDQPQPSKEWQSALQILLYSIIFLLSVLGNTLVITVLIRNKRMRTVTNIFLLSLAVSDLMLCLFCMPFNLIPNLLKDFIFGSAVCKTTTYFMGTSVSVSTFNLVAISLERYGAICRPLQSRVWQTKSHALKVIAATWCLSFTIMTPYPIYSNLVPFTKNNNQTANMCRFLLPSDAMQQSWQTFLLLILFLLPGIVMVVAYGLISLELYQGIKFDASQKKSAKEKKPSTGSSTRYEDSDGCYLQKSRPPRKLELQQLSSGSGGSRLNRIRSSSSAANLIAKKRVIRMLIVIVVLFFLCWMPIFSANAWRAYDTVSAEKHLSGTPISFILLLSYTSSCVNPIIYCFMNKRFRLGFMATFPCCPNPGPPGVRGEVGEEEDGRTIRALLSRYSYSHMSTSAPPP
# [2] = target: T2, Gastrin/cholecystokinin type B receptor (Mus musculus, UniProt P56481); experiment: Inhibition of [3H]propionyl-CCK-8 binding to mouse cerebral cortex membrane cholecystokinin-B (CCK-B) receptor; type: tissue-based
# T2 sequence (P56481 whole entry): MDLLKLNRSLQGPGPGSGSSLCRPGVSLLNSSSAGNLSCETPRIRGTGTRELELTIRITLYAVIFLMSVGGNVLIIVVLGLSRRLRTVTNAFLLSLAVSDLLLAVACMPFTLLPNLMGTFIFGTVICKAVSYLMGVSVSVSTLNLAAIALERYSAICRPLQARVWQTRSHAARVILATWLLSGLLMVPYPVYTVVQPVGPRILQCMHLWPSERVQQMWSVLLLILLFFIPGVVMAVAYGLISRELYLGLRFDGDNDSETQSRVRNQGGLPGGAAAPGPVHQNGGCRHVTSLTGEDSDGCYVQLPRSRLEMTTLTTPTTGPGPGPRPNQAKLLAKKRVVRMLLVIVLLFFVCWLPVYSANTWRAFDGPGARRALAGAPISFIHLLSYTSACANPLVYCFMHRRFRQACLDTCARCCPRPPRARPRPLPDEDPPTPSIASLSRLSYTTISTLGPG
SMILES,IC50 [1] [µM],IC50 [2] [µM]
C[Si](C)(C)CCOC(=O)C[C@@H](Cc1ccccc1)NC(=O)[C@@H]1Cc2c([nH]c3ccccc23)[C@@H]2C[C@H](NC(=O)OCc3ccccc3)C(=O)N12,1.4,> 10
CC(C)(C)OC(=O)N[C@H]1C[C@@H]2c3[nH]c4ccccc4c3C[C@@H](C(=O)N[C@@H](CC(=O)O)Cc3ccccc3)N2C1=O,4.48,> 10
O=C(O)C[C@H](Cc1ccccc1)NC(=O)[C@@H]1Cc2c([nH]c3ccccc23)[C@H]2C[C@H](NC(=O)OCc3ccccc3)C(=O)N21,0.088,> 10
O=C(O)C[C@H](Cc1ccccc1)NC(=O)[C@@H]1Cc2c([nH]c3ccccc23)[C@@H]2C[C@H](NC(=O)OCc3ccccc3)C(=O)N12,0.635,> 10
C[Si](C)(C)CCOC(=O)C[C@@H](Cc1ccccc1)NC(=O)[C@@H]1Cc2c([nH]c3ccccc23)[C@H]2C[C@H](NC(=O)OCc3ccccc3)C(=O)N21,0.18,1.5
CC(C)(C)OC(=O)N[C@H]1C[C@@H]2c3[nH]c4ccccc4c3C[C@@H](C(=O)N[C@H](CC(=O)O)Cc3ccccc3)N2C1=O,> 10,> 10
O=C(O)C[C@@H](Cc1ccccc1)NC(=O)[C@@H]1Cc2c([nH]c3ccccc23)[C@@H]2C[C@H](NC(=O)OCc3ccccc3)C(=O)N12,1,> 10
C[Si](C)(C)CCOC(=O)C[C@H](Cc1ccccc1)NC(=O)[C@@H]1Cc2c([nH]c3ccccc23)[C@H]2C[C@H](NC(=O)OCc3ccccc3)C(=O)N21,0.22,2.4
C[Si](C)(C)CCOC(=O)C[C@H](Cc1ccccc1)NC(=O)[C@@H]1Cc2c([nH]c3ccccc23)[C@@H]2C[C@H](NC(=O)OCc3ccccc3)C(=O)N12,0.46,> 10
O=C(O)C[C@@H](Cc1ccccc1)NC(=O)[C@@H]1Cc2c([nH]c3ccccc23)[C@H]2C[C@H](NC(=O)OCc3ccccc3)C(=O)N21,0.0074,2.7
